Reference: patent US20200215537A1, “ULTRASENSITIVE CANTILEVER” (3P SENSE LIMITED, priority 2017, published 2020)
Like-named read-outs stand apart in the source and are kept apart here.

What was measured:
D-VSR = test: Cantilever binding assay against D-VSR coated cantilevers
Method: (§1) In the case of preparation of unpassivated cantilever, SAMs of D-VSR, L-VSR and inert PEG molecules were diluted to a concentration of 1 μM in pure ethanol. The diluted SAMs were individually injected into glass capillary tubes (King Precision Glass, Claremont, Calif., USA) which were arranged on the functionalization stage. The cantilevers were then functionalized by incubating them with individual SAMS inside the glass capillaries for 20 min. Care was taken to ensure that the hinge region was entirely covered with the SAM solution in order to ensure mechanical connectivity between the transduction arrays and hinge region.
(§2) Finally, learning from enantiomeric molecules, although identical in structure and are mirror images of one another with different physical characteristics, could be used to test the impact of the regulatory connectivity networks on the biomechanical forces involved in molecular interactions. So it was inferred that in chiral species the level of complementarity between a drug and its target will lead to different assemblies across the mirror images of the surface receptors and this can be reflected in the distinguishable biomechanical forces. To test this concept the interaction of the D-VSR and its corresponding mirror image (L-VSR) (see, Cantilever functionalization with surface target molecules) with the antibiotic drug vancomycin was studied. D-VSR is an enantiomer predominantly found in bacterial cell walls whereas L-VSR is not produced by bacteria. […] The mechanical response obtained using a high concentration of Van (50 μM) against 100 μm wide parallel transduction arrays of D-VSR and L-VSR was initially tested. […] In contrast the signal response of Van against L-VSR was very small ˜−200 pN, approximately 20 times smaller than with D-VSR (FIG. 5a). The experiment was repeated using a wide range of different concentrations of Van (0.1-1000 μM) on at least four separate chips.
(§3) Functionalized cantilever chips were mounted in a sealed liquid cell environment and a time-multiplexed optical laser readout system (Scentris, Veeco Instruments Inc., Santa Barbara, Calif., USA) was used to measure the cantilever bending. The laser alignment was considered successful if the difference between the minimum and maximum deflection was <5% when the cell temperature was raised by 1° C. for 10 min followed by 10 min cooling to room temperature. […]
(§4) The biomechanical force data from ligand-receptor interactions were measured as follows: sodium phosphate buffer (pH 7.4, 0.1 M) was injected into the cell for either 3 or 10 min to establish a baseline. […] Cantilever bending signals were measured in a fixed temperature-controlled hood at 25° C. using a liquid flow rate of 30-180 μL min^−1. […]

L-VSR = test: Cantilever binding assay against L-VSR coated cantilevers; details: for biomechanical force / signal response: 50 μM ligand, sodium phosphate buffer pH 7.4, L-VSR coated cantilevers; for signal response over concentration range: all concentrations of ligand
Method: as §1, §2, §3, §4

[1] = solution; cited from earlier work
[2] = SPR; cited from earlier work
[3] = system: vancomycin susceptible receptor (VSR); test: Cantilever binding assay, vancomycin against VSR coated cantilevers
Method: as §1
The finding that a signal response is detectable even when the assembling of array networks is confined to only 30 μm of the geometrical width of the region covered while the corresponding geometeric length is fixed at 500 μm of the cantilever, prompted us to examine whether changing the dimensions of the cantilever itself whilst maintaining the mechanical connectivity of surface receptors has any impact on the signal sensitivity and reproducibility. This is because the dimensions of a sensing element can greatly impact on the signal response in several ways (1) the threshold size of the ligand capture cross-section area that is able to generate mechanical signaling decreases when the size of the sensing element is reduced, (2) the biomechanical force impacting on the sensing element is more pronounced for a narrow sensing element, and (3) the narrower the sensing element, the less rigid it is and the more responsive it will be to molecular forces. Further, continuous mechanical connectivity can be effected by the edging effects at the perimeter of the sensor itself and its impact would be more pronounced for narrower sensing elements (FIG. 1b). The effect on signal response by reducing the conventional cantilever width from 100 μm to 70 μm whilst keeping the length and thickness at 500 μm and 1 μm, respectively, was examined. These dimensions were chosen because they enable the narrowed cantilever to be used with standard instruments without the need for redesigning equipment. In addition, at this width the cantilever is less affected by the capillary forces and static charges which may render careful alignment of the scanning laser at the free-end more difficult. For this experiment vancomycin (Van) as the reporter molecule and vancomycin-susceptible receptor (or VSR)^21 as its target were used. Van is the Food and Drug Administration (FDA)-approved drug of last resort for clinical treatment of MRSA and clostridium difficile infections^38,39. This particular system was chosen because it gives relatively large signals and it has been previously shown that the quantitative Van-VSR binding constants can be measured^21 and so it can be used to redefine the limit of recognition of biologically relevant systems. The entire surface of the cantilever including the hinge region was coated with VSR using glass capillares (See Cantilever functionalization with surface target molecules). Artefacts that produce non-specific signals were overcome by performing differential measurements where the reference mercaptoundecyl tri(ethylene glycol) thiol (PEG)-coated cantilever signals was subtracted from the VSR signals. […] The signal response obtained from all three cantilevers was highly consistent and almost identical over a 60 min time period. Moreover, the compressive signal response was relatively high averaging −400±30 pN with a signal-to-noise ratio (SNR) of 7. […] Next, the impact of different concentrations on signal response initially fixed at 20, 50, 500 and 1000 nM (FIG. 4b-d) was examined. […] The thermodynamic pseudo-equilibrium signal response was attained at 60 and 50 min for 20 nM and 50 nM Van, respectively. In contrast, the thermodynamic pseudo-equilibrium was achieved within 6 min or less for Van concentrations ≥500 nM. […]

## ristocetin
D-VSR; 50 μM ligand
  ratio of signal response D-VSR versus L-VSR: approximately 3 times
D-VSR; 50 μM ligand, sodium phosphate buffer pH 7.4, D-VSR coated 100 μm wide cantilevers
  biomechanical force / mechanical response: ~−5000 pN
L-VSR
  biomechanical force / signal response: ~−2000 pN
  signal response over concentration range: remained small compared to D-VSR

## CN[C@H](CC(C)C)C(=O)N[C@H]1C(=O)N[C@@H](CC(N)=O)C(=O)N[C@H]2C(=O)N[C@H]3C(=O)N[C@H](C(=O)N[C@H](C(=O)O)c4cc(O)cc(O)c4-c4cc3ccc4O)[C@H](O)c3ccc(c(Cl)c3)Oc3cc2cc(c3O[C@@H]2O[C@H](CO)[C@@H](O)[C@H](O)[C@H]2O[C@H]2C[C@](C)(N)[C@H](O)[C@H](C)O2)Oc2ccc(cc2Cl)[C@H]1O [Van, vancomycin]
D-VSR; 50 μM ligand
  ratio of signal response D-VSR versus L-VSR: approximately 20 times
D-VSR; 0.1-1000 μM Van
  ligand concentration at which plateau was reached: 50 µM
[1]
  Kd: 700 nM
L-VSR
  biomechanical force / signal response: ~−200 pN
  signal response over concentration range: only a small signal response
[2]
  Kd: 1000 ± 300 nM
[3]; 500 pM Van, 100 μm wide cantilevers
  signal response: no signal response
[3]; 500 pM Van, pH 7.4, small sized (70 μm wide) cantilever, three separate cantilevers
  mechanical force / signal response: −400±30 pN
[3]; 0.0005 μM to 250 μM Van, narrow cantilevers
  Van concentration at which signal response reached a plateau: 10 µM
[3]; 20 nM Van
  time to thermodynamic pseudo-equilibrium signal response: 60 min
[3]; 20 nM Van, small sized cantilever
  biomechanical force response: ~−500 pN
[3]; 50 nM Van
  time to thermodynamic pseudo-equilibrium signal response: 50 min
[3]; 50 nM Van, small sized cantilever
  biomechanical force response: ~−1500 pN
[3]; 500 nM Van, small sized cantilever
  biomechanical force response: ~−3000 pN
[3]; 1 μM Van, 3 separate small sized cantilevers
  mechanical force response: ~−5000±400 pN
[3]; 1 μM Van, conventional 100 μm wide cantilevers
  signal response: −120 nm
[3]; 100 μm and 70 μm cantilevers, read-out: Kd (surface thermodynamic equilibrium dissociation constant, equation (1))
  Kd: 500 ± 100 nM
[3]; Van concentrations ≥500 nM
  time to thermodynamic pseudo-equilibrium: ≤ 6 min
[3]; all concentrations of Van
  reversibility of signal response: reversible
[3]; large sized cantilever
  mechanical forces arising from [Van] against VSR (plot): ~−3800 pN
[3]; small sized cantilever
  mechanical forces arising from [Van] against VSR (plot): ~−6900 pN
